Calls of active or inactive are those of the source. No cut-off for these calls is given here.

In series [1] the target is T1, TGF-beta receptor type-1 (Homo sapiens, UniProt P36897).
T1 sequence (P36897 whole entry): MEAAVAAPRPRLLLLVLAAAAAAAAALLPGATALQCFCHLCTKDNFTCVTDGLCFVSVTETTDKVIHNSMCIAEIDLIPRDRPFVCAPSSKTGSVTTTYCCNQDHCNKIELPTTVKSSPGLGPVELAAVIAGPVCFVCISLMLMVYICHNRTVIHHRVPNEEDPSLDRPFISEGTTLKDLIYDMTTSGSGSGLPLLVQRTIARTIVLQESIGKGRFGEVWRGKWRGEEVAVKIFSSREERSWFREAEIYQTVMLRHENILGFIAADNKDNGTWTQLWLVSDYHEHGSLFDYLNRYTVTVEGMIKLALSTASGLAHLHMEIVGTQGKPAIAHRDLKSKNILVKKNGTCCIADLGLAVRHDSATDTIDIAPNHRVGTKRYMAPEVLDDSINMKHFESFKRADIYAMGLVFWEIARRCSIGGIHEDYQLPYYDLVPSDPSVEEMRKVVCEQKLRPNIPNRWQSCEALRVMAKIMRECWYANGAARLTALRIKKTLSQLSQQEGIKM
In words: Inhibition of ALK5.

In series [2] the target is T2, TGF-beta receptor type-1 (Mus musculus, UniProt Q64729).
T2 sequence (Q64729 whole entry): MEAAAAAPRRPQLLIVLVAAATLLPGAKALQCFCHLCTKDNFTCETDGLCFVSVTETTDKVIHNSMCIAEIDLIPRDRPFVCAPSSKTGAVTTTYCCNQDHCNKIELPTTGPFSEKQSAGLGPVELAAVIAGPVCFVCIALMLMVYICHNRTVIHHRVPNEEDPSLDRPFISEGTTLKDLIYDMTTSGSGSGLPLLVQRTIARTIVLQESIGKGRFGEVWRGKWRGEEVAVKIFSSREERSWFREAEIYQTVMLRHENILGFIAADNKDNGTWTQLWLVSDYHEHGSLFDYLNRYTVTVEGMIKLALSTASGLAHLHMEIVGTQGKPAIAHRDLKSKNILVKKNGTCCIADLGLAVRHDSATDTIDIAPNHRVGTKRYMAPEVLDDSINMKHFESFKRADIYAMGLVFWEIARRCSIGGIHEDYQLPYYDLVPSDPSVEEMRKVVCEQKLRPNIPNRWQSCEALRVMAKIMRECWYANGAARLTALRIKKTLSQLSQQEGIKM
In words: Inhibition of ALK5 in mouse NIH/3T3 cells by smad binding element reporter based assay. In kind it is cell-based.

A short description of series [3]: Photostability of the compound assessed as compound remaining after exposure to sunlight. In kind it is physicochemical.
The nature of series [4]: Photostability of the compound assessed as compound degradation after exposure to sunlight. In kind it is physicochemical. To be noted: read-out: Drug degradation.
A further series deals with T3, Activin receptor type-1B (Homo sapiens, UniProt P36896).
T3 sequence (P36896 whole entry): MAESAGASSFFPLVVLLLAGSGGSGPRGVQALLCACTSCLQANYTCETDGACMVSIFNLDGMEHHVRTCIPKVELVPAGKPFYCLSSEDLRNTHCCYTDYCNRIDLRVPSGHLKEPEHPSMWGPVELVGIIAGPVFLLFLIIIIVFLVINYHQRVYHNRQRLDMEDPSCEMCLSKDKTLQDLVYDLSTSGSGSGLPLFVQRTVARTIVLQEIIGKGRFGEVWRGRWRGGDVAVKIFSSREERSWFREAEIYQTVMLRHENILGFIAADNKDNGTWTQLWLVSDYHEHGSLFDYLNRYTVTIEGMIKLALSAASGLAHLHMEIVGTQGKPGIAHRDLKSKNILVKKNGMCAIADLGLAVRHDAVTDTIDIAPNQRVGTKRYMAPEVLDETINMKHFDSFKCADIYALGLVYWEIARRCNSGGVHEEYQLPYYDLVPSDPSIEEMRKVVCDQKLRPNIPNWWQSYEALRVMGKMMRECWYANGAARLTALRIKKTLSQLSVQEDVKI
Kind of series: Inhibition of ALK4.

Series [5] addresses Activin receptor type-1-like (Homo sapiens, UniProt P37023). In words: Inhibition of ALK1.
Series [6] relates to Fibroblast. Kind of series: Inhibition of in TGFbeta-induced COL1A gene expression in human fibroblasts. The format is functional, cell-based.
For series [7], the system named is Fibroblast. In words: Inhibition of in TGFbeta-induced CTGF gene expression in human fibroblasts. In kind it is functional, cell-based.
For series [8], the system named is Fibroblast. In words: Inhibition of in TGFbeta-induced FN1 gene expression in human fibroblasts. The format is functional, cell-based.
In series [9] the test system is Fibroblast. In words: Inhibition of in TGFbeta-induced PAI1 gene expression in human fibroblasts. The format is functional, cell-based.
Series [10] relates to Fibroblast. Kind of series: Inhibition of in TGFbeta-induced TGFbeta1 gene expression in human fibroblasts. The format is functional, cell-based.
Series [11] has as its system Fibroblast. Kind of series: Inhibition of in TGFbeta-induced FSP1 gene expression in human fibroblasts. In kind it is functional, cell-based.
The subject of series [12] is Fibroblast. Kind of series: Inhibition of in TGFbeta-induced alpha-SMA gene expression in human fibroblasts. In kind it is functional, cell-based.
Series [13] concerns Fibroblast. In words: Inhibition of in TGFbeta-induced SMAD2/3 phosphorylation in human fibroblasts. In kind it is functional, cell-based.
For series [14], the system named is Rattus norvegicus. In words: Inhibition of wound healing in rat wound repair model treated topically by measuring wound closure after 7 days. In kind it is functional, organism-based.
Series [15] has as its system Rattus norvegicus. Kind of series: Inhibition of dermal injury-induced CLO1A gene expression in rat wound repair model treated topically after 7 days. The format is functional, organism-based.
Series [16] concerns Rattus norvegicus. In words: Inhibition of dermal injury-induced CTGF gene expression in rat wound repair model treated topically after 7 days. The format is functional, organism-based.
The subject of series [17] is Rattus norvegicus. In words: Inhibition of dermal injury-induced FN1 gene expression in rat wound repair model treated topically after 7 days. In kind it is functional, organism-based.
In series [18] the test system is Rattus norvegicus. In words: Inhibition of dermal injury-induced PAI1 gene expression in rat wound repair model treated topically after 7 days. In kind it is functional, organism-based.
For series [19], the system named is Rattus norvegicus. Kind of series: Inhibition of dermal injury-induced TGFbeta-1 gene expression in rat wound repair model treated topically after 7 days. In kind it is functional, organism-based.
Series [20] deals with Rattus norvegicus. In words: Inhibition of dermal injury-induced FSP1 gene expression in rat wound repair model treated topically after 7 days. In kind it is functional, organism-based.
Series [21] deals with Rattus norvegicus. In words: Inhibition of dermal injury-induced alpha-SMA gene expression in rat wound repair model treated topically after 7 days. In kind it is functional, organism-based.
Series [22] has as its system Rattus norvegicus. In words: Inhibition of dermal injury-induced new collagen synthesis in rat wound repair model at 1% treated topically after 7 days. The format is functional.

Chain of Activin receptor type-1-like (P37023 whole entry): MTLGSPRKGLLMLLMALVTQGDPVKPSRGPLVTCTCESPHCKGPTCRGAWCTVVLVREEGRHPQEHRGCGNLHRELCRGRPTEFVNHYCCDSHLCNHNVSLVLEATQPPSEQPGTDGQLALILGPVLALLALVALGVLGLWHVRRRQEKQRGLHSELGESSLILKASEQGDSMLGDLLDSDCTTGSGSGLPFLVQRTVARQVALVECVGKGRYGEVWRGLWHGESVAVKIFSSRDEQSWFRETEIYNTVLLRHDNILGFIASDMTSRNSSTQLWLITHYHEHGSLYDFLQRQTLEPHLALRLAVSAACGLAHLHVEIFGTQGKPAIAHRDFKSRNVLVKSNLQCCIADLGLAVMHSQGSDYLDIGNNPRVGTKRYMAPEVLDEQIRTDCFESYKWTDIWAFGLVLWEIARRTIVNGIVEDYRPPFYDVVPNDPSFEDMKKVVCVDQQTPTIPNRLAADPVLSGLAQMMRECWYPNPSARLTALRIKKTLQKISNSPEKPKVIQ

As a reminder, the IC50 is the concentration that gives 50% inhibition. As for `Cc1cccc(-n2nc3c(c2-c2ccc4nc[nH]c(=O)c4c2)CCC3)n1`, the IC50 at TGF-beta receptor type-1 [1] was 5 nM; at TGF-beta receptor type-1 [2], 46 nM. Besides, the Stability in series [3] was determined as 100%.

Regarding `Cc1cccc(-c2n[nH]cc2-c2ccc3ncn(C)c(=O)c3c2)n1`, in series [3], the Stability is 32%. The degraded in series [4] worked out at 68%.

With `Cc1cccc(-n2ncc(C)c2-c2ccc3nc[nH]c(=O)c3c2)n1`, the figures for the IC50 against TGF-beta receptor type-1 [1] and on TGF-beta receptor type-1 [2] were 1 nM and 61 nM, respectively.

Regarding `CCc1cnn(-c2cccc(C)n2)c1-c1ccc2nc[nH]c(=O)c2c1`, the IC50 on TGF-beta receptor type-1 [1] worked out at 2 nM; on TGF-beta receptor type-1 [2], 47 nM.

As for `C=Cn1cnc2ccc(-c3ccnn3-c3cccc(C)n3)cc2c1=O`, the half-maximal inhibitory concentration (IC50) at TGF-beta receptor type-1 [1] worked out at 4 nM; on TGF-beta receptor type-1 [2], 44 nM. Moreover, in series [3], the Stability worked out at 100%.

As for `Cc1cccc(-n2nccc2-c2ccc3nc[nH]c(=O)c3c2)n1`, the IC50 turned out to be 6 nM at TGF-beta receptor type-1 [1] and 73 nM on TGF-beta receptor type-1 [2].

As to `Cc1cccc(-n2ncc(C)c2-c2ccc3ncn(C)c(=O)c3c2)n1`, the IC50 is 4 nM against TGF-beta receptor type-1 [1] and 135 nM on TGF-beta receptor type-1 [2]. The Stability in series [3] came to 99%.

Turning to `Cc1cccc(-n2nccc2-c2ccc3ncn(C)c(=O)c3c2)n1`, the IC50 at TGF-beta receptor type-1 [1] was 13 nM; against Activin receptor type-1B, 59 nM; in series [5] it was > 5 µM; on TGF-beta receptor type-1 [2], 211 nM. In addition, the Stability in series [3] is 99.4%. Also, the inhibition result in the series with Fibroblast [6], with Fibroblast [7], in the series with Fibroblast [8], in the series on Fibroblast [9], in the series on Fibroblast [10] and in the series on Fibroblast [11] was “Dose-dependent effect” in each case. For the same compound, the inhibition entry in the series with Fibroblast [12], in the series with Fibroblast [13], in the series with Rattus norvegicus [15], in the series on Rattus norvegicus [16], with Rattus norvegicus [17] and in the series with Rattus norvegicus [18] was “Dose-dependent effect” each time. Besides, the inhibition result with Rattus norvegicus [19], with Rattus norvegicus [20] and with Rattus norvegicus [21] was “Dose-dependent effect” each time. Moreover, in the series on Rattus norvegicus [14], the inhibition result was “inactive”. Besides, the “inhibition (INH)” value with Rattus norvegicus [22] is 26%.

Take `CCn1cnc2ccc(-c3ccnn3-c3cccc(C)n3)cc2c1=O`: the IC50 against TGF-beta receptor type-1 [1] is 69 nM; on TGF-beta receptor type-1 [2] it was 708 nM. The Stability in series [3] is recorded as 100%.

Regarding `CCc1cc(-c2ccc3ncn(C)c(=O)c3c2)n(-c2cccc(C)n2)n1`, the values for the IC50 at TGF-beta receptor type-1 [1] and on TGF-beta receptor type-1 [2] were 1 nM and 274 nM, respectively.

On to `Cc1cccc(-n2nc(C)cc2-c2ccc3ncn(C)c(=O)c3c2)n1`, for which the IC50 at TGF-beta receptor type-1 [1] was found to be 3 nM; on TGF-beta receptor type-1 [2], 695 nM.

The record behind these values is ChEMBL document CHEMBL2021874, “Discovery of a series of 2-(1H-pyrazol-1-yl)pyridines as ALK5 inhibitors with potential utility in the prevention of dermal scarring” (Bioorg Med Chem Lett, 2012).
